According to ChEMBL document CHEMBL1129063, “Design, synthesis, and biochemical evaluation of N-substituted maleimides as inhibitors of prostaglandin endoperoxide synthases” (J Med Chem, 1996):

Target: Cyclooxygenase (Homo sapiens, UniProt P35354+P23219)
Assay: Inhibitory activity against Prostaglandin G/H synthase

IC50 [µM] | Structure (SMILES)
27 | O=C(O)c1ccc(CN2C(=O)C=CC2=O)cc1
250 | O=C(O)c1ccccc1OCCN1C(=O)C=CC1=O
> 200 | CC(=O)Oc1cc(N2C(=O)C=CC2=O)ccc1C(=O)O
50 | Cc1ccccc1CN1C(=O)C=CC1=O

Second part, the molecule before the results:

Structure (SMILES) | IC50 [µM]
CCCCCCCCCN1C(=O)C=CC1=O | 12
O=C(O)CCCCCCCCCCCN1C(=O)C=CC1=O | 140
CC(=O)Oc1ccc(N2C(=O)C=CC2=O)cc1C(=O)O | 29
O=C(O)CCCCCCCCN1C(=O)C=CC1=O | 26
O=C(O)CCCCCCN1C(=O)C=CC1=O | 570
O=C(O)CCCCCN1C(=O)C=CC1=O | > 800
CCCCCCCCCCN1C(=O)C=CC1=O | 14
O=C(O)CCCCCCCCCN1C(=O)C=CC1=O | 37
O=C(O)CCCCCCCCCCN1C(=O)C=CC1=O | 40
